Source: the NIST ThermoML archive (doi:10.1016/j.fluid.2010.08.026)
± gives the expanded uncertainty stated by the source.

Legend:
[1] = Molar enthalpy of transition or fusion
[2] = Closed cell (Static) method; for Normal melting temperature: Crystal 1

Structure (SMILES) | Molar enthalpy of transition or fusion ([1]; Crystal, DSC) [kcal/mol] | Molar enthalpy of transition or fusion ([1]; Crystal 1, Closed cell (Static) method) [kcal/mol] | Normal melting temperature [2] [°C] | vapor or sublimation pressure ([2]; 356.86 K, Liquid) [kPa]
CC(C)NC(C)C [diisopropylamine] | 5.43 ± 0.172 |  |  | 
CC(O)CNCC(C)O (stereo not given) [N-(2-hydroxypropyl)-2-hydroxy-1-propanamine] |  | 5.43 | 42.7 | 
CN(CCO)CCO [N-methyldiethanolamine] |  |  | -23 | 0.2
